Test results reported in publication PMC9505538, “P-Glycoprotein (MDR1/ABCB1) Restricts Brain Accumulation of the Novel EGFR Inhibitor EAI045 and Oral Elacridar Coadministration Enhances Its Brain Accumulation and Oral Exposure” (Pharmaceuticals, 2022).

Settings: mouse, in vivo
Experimental: We subsequently analyzed the single and combined effects of Abcb1 and Abcg2 deficiencies on EAI045 plasma pharmacokinetics and tissue accumulation using male WT, Abcg2^-/-, Abcb1a/1b^-/-, and Abcb1a/1b;Abcg2^-/- mice. As we wanted to assess tissue concentrations while plasma concentrations were still relatively high; we terminated this experiment at 30 min.
Mice (Mus musculus) were bred in the Netherlands Cancer Institute and housed and handled according to institutional guidelines complying with Dutch and EU legislation. Animals used were WT, Abcb1a/1b^-/- [39], Abcg2^-/- [40], Abcb1a/1b;Abcg2^-/- [41], Cyp3a^-/- [42], and Oatp1a/1b^-/- [43] mice of a >99% FVB/N strain background. Homozygous CYP3A4 humanized transgenic mice (Cyp3aXAV) were generated by cross-breeding of transgenic mice with stable human CYP3A4 expression in the liver or intestine, respectively, in a Cyp3a^-/- background. Proper functionality of the knockout and transgenic strains was monitored by regular testing with a variety of drug substrates. All the mice used were between 10 and 15 weeks of age. Animals were kept in a temperature-controlled environment with a 12 h light/12 h dark cycle and received a standard diet (Transbreed, SDS Diets, Technilab-BMI, The Netherlands) and acidified water ad libitum. Depending on the type of experiment, 5 or 6 mice were tested in each experimental group. All experimental animal protocols, including power calculations, were ethically assessed and designed under the nationally approved DEC/CCD project AVD301002016595 (approval date, 10 August 2016) and evaluated and approved by the institutional animal care and use committee (IACUC) of the Netherlands Cancer Institute.
EAI045 was dissolved in dimethyl sulfoxide (DMSO) at a concentration of […], and then diluted with a mixture of polysorbate 80/ethanol (1:1, v/v), and further diluted with 5% (w/v) glucose in water to yield a concentration of 2 mg/mL. Final concentrations for DMSO, polysorbate 80, ethanol, and glucose in the dosing solution were 5%, 2.5%, 2.5%, and 4.5% (v/v/v/w), respectively. Elacridar hydrochloride was dissolved in DMSO at a concentration of 53 mg/mL, then diluted with a mixture of polysorbate 80, ethanol, and water [20:13:67, (v/v/v)] to yield a concentration of 5 mg/mL elacridar. The final oral dose of elacridar was 50 mg/kg body weight. All dosing solutions were prepared freshly on the day of experiment.
To minimize variation in absorption, mice were fasted for about 3 h before EAI045 was administered by gavage into the stomach (n = 5–6), using a blunt-ended needle. EAI045 was administered orally at dose of 20 mg/kg. Elacridar was administered orally at a dose of 50 mg/kg, 3 h prior to oral EAI045 administration. For the 24- or 4-h experiments, tail vein blood samplings were performed at 5 min, 30 min, 1, 2, 4, and 8 h, or 5 min, 15 min, 30 min, 1, and 2 h time points after oral administration of EAI045, respectively, using microvettes containing heparin. For the 30 min experiments, blood samplings were performed at 5, 10, and 20 min from the tail vein. At the last time point (24 h, 4 h, or 30 min), mice were anesthetized with isoflurane and blood was collected by cardiac puncture. Then, mice were sacrificed by cervical dislocation and brain, liver, spleen, kidneys, lung, small intestine with content (SIWC), and testis were rapidly removed and weighed. Tissues were homogenized on ice in appropriate volumes of 2% (w/v) BSA. Blood samples were centrifuged at 9000× g for 6 min at 4 °C immediately after collection. All samples were stored at −30 °C until analysis.

For O=C(Nc1nccs1)C(c1cc(F)ccc1O)N1Cc2ccccc2C1=O (stereo not shown) [EAI045], the “Kp.SIWC% (SIWC%-to-plasma ratio), fold decrease” value was 3.6 fold, the “SIWC%, fold decrease” value was 2.1 fold and the “brain-to-plasma ratio, fold increase” value was 5.2 fold. For the same molecule, the “plasma AUC0–30min, fold increase” value was 2.1 fold.
